1 molecule from patent EP4424327A1, “METHOD OR AGENT WITH HDAC REGULATOR, FOR TREATMENT OF DIABETES AND COMPLICATIONS” (Biozipcode, Inc., priority 2021, dated 2023) can be followed below.

Test [1] relates to STZ-DM mice. Nature of the test: Drug treatment of STZ-DM mice (Example 3): weekly blood glucose levels. The format is in vivo, C57BL/6 J mice. The method, then:
An overview of the procedure is illustrated in FIG. 13. Streptozotocin (150 mg/kg) was tail vein-administered to C57BL/6 J mice (wild type, CLEA Japan, Inc., Osaka) (nonDM) to develop diabetes mellitus. For the STZ-DM mouse, the blood glucose level was normalized by insulin pellet administration, and the blank pellet was administered to a control group. In both the treatment group and the control group, 2.5 mg/kg of givinostat (Cayman chemical, USA) was administered to the tail vein or orally. The insulin pellet or the blank pellet was administered up to 3 days before the start of the givinostat treatment, and the administration of givinostat was started on the day on which it was confirmed that the blood glucose level of the treatment group fell within the normal range on day 0. Note that givinostat was administered once every three days until week 8. In addition, a non-diabetic group (nonDM) in which only a buffer was administered without administering STZ simultaneously with the treatment group, and a non-treated diabetic group (STZ-DM) in which neither blood glucose control nor treatment with givinostat was performed were also observed simultaneously.
(§1) Blood glucose levels were measured weekly for 12 weeks. In addition, an intraperitoneal glucose tolerance test (IPGTT) was performed on some mice 12 weeks after the start of treatment. After 16 hours of fasting, blood glucose level measurement and blood collection were performed at 0 minutes, 100 µl of a 1.5 g/kg glucose solution was intraperitoneally administered, and blood glucose level measurement and blood collection were performed at 30 minutes, 60 minutes, and 120 minutes, respectively. Serum was collected from the collected blood, and the serum insulin concentration was measured using an ultra-sensitive mouse insulin measurement kit (Morinaga Institute of Biological Science, Inc., Japan). FIG. 15 illustrates the transition of blood glucose, and FIG. 16 illustrates the transition of insulin concentration.

For test [2], the system named is STZ-DM mice. As to the kind of experiment: Intraperitoneal glucose tolerance test (IPGTT) 12 weeks after start of treatment (Example 3). The format is in vivo, C57BL/6 J mice. The settings on record: insulin pellet + givinostat compared with blank pellet + givinostat, 1.5 g/kg glucose i.p. Here is the method: as §1
Test [3] deals with STZ-DM mice. As to the kind of experiment: Insulin and glucagon DAB staining of frozen pancreas sections (Example 3). It is filed as in vivo, C57BL/6 J mice. The settings on record: givinostat administered simultaneously with blood glucose control (insulin pellet). The method, then:
12 weeks after the start of treatment, some mice were subjected to perfusion fixation with a 4% PFA solution in 0.1 M PB and harvested pancreatic tissue was immersed overnight in a 15% sucrose solution in 0.1 M PB, and then, 8 um frozen sections were prepared with a cryostat. The frozen sections were washed 3 times with PBS (-) for 10 minutes, reacted in a 0.3% hydrogen peroxide solution (0.3% H2O2 in PBS (-)) for 30 minutes at room temperature to inactivate endogenous peroxidase in the sections, and then washed 3 times for 5 minutes with PBS (-). Thereafter, in order to prevent non-specific reactions, the sections were reacted with 5% normal goat serum in PBS (-) supplemented with 0.3% Triton X and blocked at room temperature for 1 hour. After blocking, the sections were reacted with a primary antibody (anti-insulin antibody: CST Inc. or anti-glucagon antibody: CST Inc.) at 4°C overnight. Thereafter, the sections was washed 3 times with PBS (-) for 5 minutes, reacted in ImmPRESS reagent (Vector laboratory) at room temperature for 30 minutes, and further washed. […] The prepared sections were observed under a microscope, about 5 to 8 pancreatic islets were randomly selected, and the percentage of insulin or glucagon positive cells relative to the size of the pancreatic islets was calculated using Image J software.

The subject of test [4] is STZ-DM mice. Nature of the test: Weight of the collected thymus (Example 3). It is filed as in vivo, C57BL/6 J mice. The settings on record: givinostat simultaneously with blood glucose control, both oral and intravenous; non-diabetic 37 mg, diabetic 13 mg.
Test [5] concerns STZ-DM mice. As to the kind of experiment: TNF-α immunostaining (DAB staining) of bone marrow, thymus and pancreatic islets (Example 3). The format is in vivo, C57BL/6 J mice. Here is the method: In addition, mice in each experimental group were subjected to perfusion fixation, and then dissected to collect the femur, thymus, and pancreas. In the femur, bone tissue was demineralized using a neutral demineralizing solution (10% EDTA solution) to prepare a paraffin block. A paraffin section having a thickness of 3 µm was prepared from the paraffin block using a microtome, and was stained with DAB. As pretreatment for DAB staining, the paraffin section was deparaffinized with xylene and hydrophilized with ethanol, and the antigen was activated using HistoVT one (Nacalai Tesque). Thereafter, DAB staining was performed using TNF-α (abcam).

In a further test the test system is NOD mice. Nature of the test: Treatment of diabetes mellitus in NOD mice with HDAC regulator and blood glucose control (Example 4). The format is in vivo. The settings on record: givinostat 2.5 mg/kg orally daily + insulin glargine s.c. daily (tapered from 10 IU), 8-12 weeks. The method, then:
(§2) The treatment was started for NOD mice one week after confirmation of the onset of hyperglycemia. […] 2 hours after administration of insulin glargine, 2.5 mg/kg of givinostat was orally administered daily to a mouse whose blood glucose level was measured and blood glucose lowering was confirmed. When the blood glucose level before administration of insulin glargine was lower than 200 mg/dl at longer than 8 weeks after the start of treatment, the administration of insulin glargine and givinostat on that day was discontinued. When the blood glucose level on the next day was also below 200 mg/dl, insulin glargine and givinostat were stopped, and then, the blood glucose level was measured weekly until week 4 to determine the diabetic state. […] When hypoglycemia appeared, blood glucose levels were measured 1 hour after intraperitoneal (300 µL) administration of 25% glucose solution, and this operation was repeated when hypoglycemia was still persistent. […] When hypoglycemia was confirmed, the subsequent insulin was adjusted to 1/2 of the previous dose as necessary.

The subject of test [6] is db/db mice. Nature of the test: Treatment of db/db mice with HDAC regulator and insulin glargine (Example 5). The settings on record: givinostat 2.5 mg/kg orally daily + insulin glargine s.c. daily (tapered from 10 IU), 8-12 weeks. It is filed as in vivo. Here is the method:
as §2, with “Db/db mice were observed from week 6, and the time point at which the blood glucose level exceeded 300 mg/dl” for “The treatment”, “defined as” for “started for NOD mice one week after confirmation of”, “diabetes mellitus.” for “hyperglycemia.”

Test [7] has as its system db/db mice. Nature of the test: Treatment of db/db mice with HDAC regulator and dapagliflozin (Example 6). It is filed as in vivo. The settings on record: givinostat 2.5 mg/kg + dapagliflozin 1.0 mg/kg orally daily for 8 weeks, then 4 weeks off treatment. Here is the method: Db/db mice were observed from week 6, and the time point at which the blood glucose level exceeded 300 mg/dl was defined as the onset of diabetes mellitus. In db/db mice with leptin receptor deficiency, 1.0 mg/kg of dapagliflozin, an SGLT inhibitor, and 2.5 mg/kg of givinostat, an HDAC regulator, were orally administered daily for 8 weeks, after which the treatment was discontinued for 4 weeks and terminated.

Test [8] relates to STZ-DM mice. Nature of the test: Effect of thymectomy on treatment of STZ-DM mice (Example 8). It is filed as in vivo, C57BL/6 J mice. Here is the method: Streptozotocin (150 mg/kg) was tail vein-administered to C57BL/6 J mice (wild type, CLEA Japan, Inc., Osaka) to develop diabetes mellitus. After one month of free feeding, an insulin pellet was subcutaneously administered to these STZ-DM mice to normalize their blood glucose levels. The mice were divided into two groups, for one group of mice, the thymus was removed from the suprasternal fossa (thymectomy group), and for the other group of mice, an incision was made in the suprasternal fossa and closed immediately (control group). Givinostat (Cayman chemical, USA) was orally administered at 2.5 mg/kg to both the thymectomy group and the control group. Givinostat was administered once every three days.
Blood glucose levels of mice in both groups were measured weekly (FIG. 24). After the end of 8 weeks of treatment, perfusion fixation was performed on both groups of mice to confirm the presence or absence of thymus (FIG. 25).

The mark [9] stands for this setting: givinostat simultaneously with blood glucose control (insulin pellet).

In the case of `CCN(CC)Cc1ccc2cc(COC(=O)Nc3ccc(C(=O)NO)cc3)ccc2c1` [givinostat], the blood glucose level result with STZ-DM mice [1] (givinostat 2.5 mg/kg for 8 weeks without insulin pellet (blank pellet)) is on record as “the blood glucose level did not decrease even when givinostat was administered for 8 weeks”; with STZ-DM mice [1] (insulin pellet + givinostat (both orally and intravenously), after discontinuing givinostat after week 9, up to week 12), “the reduction in blood glucose level continued even after discontinuing givinostat after week 9”. For the same molecule, the blood glucose levels result in the test on STZ-DM mice [1] (insulin pellet + givinostat 2.5 mg/kg (oral or intravenous, once every three days for 8 weeks), start of treatment) is recorded as “immediately decreased”; in the test on STZ-DM mice [8] (control group without thymectomy, insulin pellet + givinostat 2.5 mg/kg orally once every three days, 8 weeks), “no increase in blood glucose levels was observed”. Besides, the “blood glucose levels after IPGTT” value in the test on STZ-DM mice [2] was “early normalization of blood glucose levels”. Besides, the “insulin in blood after IPGTT” value in the test on STZ-DM mice [2] is recorded as “high blood insulin elevation”. The “area of glucagon positive cells, of the entire pancreatic islets” value in the test on STZ-DM mice [3] (nonDM about 10%, STZ-DM 75%) is “about 40%”. For the same molecule, in the test with STZ-DM mice [3] (pancreatic islets, 12 weeks), the “area of insulin positive cells, relative to nonDM” value is “about 1/2”. In addition, in the test with STZ-DM mice [4], the “thymus weight, relative to normal” value was “about 2/3”. Besides, the “TNF-α positive cells in pancreatic islets” value is “a large amount of TNF-α positive cells migrated to the center of the pancreatic islets” in the test with STZ-DM mice [5] (blank pellet + givinostat treatment (oral) and (intravenous)); “almost no TNF-α positive cells were observed” in the test on STZ-DM mice [5] (insulin pellet + givinostat treatment (oral) and (intravenous)). For the same molecule, the “TNF-α positive cells in bone marrow” value in the test with STZ-DM mice [5] (setting [9]) is “TNF-α positive cells decreased to the same extent as the non-diabetic group”. Also, the “TNF-α positive cells in thymus” value in the test on STZ-DM mice [5] (setting [9]) is recorded as “TNF-α positive cells decreased to the same extent as the non-diabetic group”. The diabetes mellitus outcome in the test on NOD mice, with db/db mice [6] and in the test on db/db mice [7] was “cured” each time. In addition, the “thymus atrophied by diabetes mellitus” value in the test on STZ-DM mice [8] (control group without thymectomy, insulin pellet + givinostat, week 8) is on record as “recovered to a normal level”. The “blood glucose level at the end of treatment” value with STZ-DM mice [8] (thymectomy group, insulin pellet + givinostat 2.5 mg/kg orally once every three days, 8 weeks) is listed as “about 400 mg/dL”. In the test on STZ-DM mice [8] (thymectomy group, insulin pellet + givinostat, week 8), the thymus result was “the thymus did not recover even when the treatment was performed”.
